Results: patent US20220323443A1, “COMBINATION THERAPY FOR CANCER TREATMENT” (TAKEDA PHARMACEUTICAL COMPANY LIMITED, priority 2019, published 2022)
Structures can show the parent of a compound that is named as a salt. Where two headings read alike, the source gives them in different places.

Key:
[1] = system: A549 cancer cells; experiment: In vitro combination study with Compound 1, Cell Titer-Glo (ATP) cell viability, 72 h; type: cell-based;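 also: Ten-by-ten dose matrices of the two agents in duplicate, compounds added 16 h post-plating, activity relative to DMSO vehicle wells, call reflects synergy evaluation from luminescence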
Protocol: (§2) Each combination pair was evaluated in an individual 384-well plate which contained variable doses of both compounds as single agents, as well as two, ten-by-ten matrices (in duplicate) that contained mixtures of the two test compounds. In brief, compounds were added to the cell test plates 16 hours after cell plating and then assessed for viability 72 hours later. Continuous cultures of tumor cells were maintained under standard cell culturing conditions (i.e. in a humidified chamber set at 37° C., containing atmosphere 5% carbon dioxide). […] Seventy-two hours after compound addition, ATP levels were measured to assess cell viability. Plating densities were chosen to ensure optimal linear growth over the 72 hour period.
(§3) Compound dilution and compound delivery to the assay plates were done on HighRes Robotic System (HighRes Biosolutions, Woburn, Mass., USA) with Echo™ Liquid Handler (Labcyte, Sunnyvale, Calif., USA). […] Next, these were used for compound transfer into cell assay plates. All wells were back-filled to give a constant percentage of DMSO.
(§4) The final DMSO concentration was held constant in all wells across the plate and was maintained at less than 0.5%. […] Cells treated with vehicle (DMSO) in two rows, or single compound serial dilutions in one plate columns/row served as the untreated control and single compound controls, respectively.
(§5) Compound activity in A549, COLO205, H460, HCT116, SW48, SW620 cancer cell lines was assessed using Cell Titer-Glo® (Promega [Madison, Wis., USA]). After 72 hours incubation, the plates were treated as per package insert protocol for the Promega Luminescence ATP Detection Systems. Briefly, 25 μL of cell lysis/substrate solution (provided in kit form) was added to each well and the plate was incubated at room temperature for 10 minutes. Luminescence was measured using a PHERAstar multi-label counter (BMG Labtech [Ortenberg, Germany]) or LEADseeker (GE Healthcare Life Sciences [Piscataway, N.J., USA]).
(§6) Numerical luminescence values were analyzed to generate EC50 curves and evaluate synergy. Raw Data reader files were uploaded along with automation workfiles that defined the plate and well contents. Percent activities were calculated for each well versus plate controls.
(§7) Each plate representing a single drug combination was analyzed separately. First, the viability measurements were normalized by scaling the data so that the median of the negative controls was 0 and the median of the positive controls was 100.
(§8) For the combination analysis, a response surface model was used to describe the relationship between the normalized viability and the drug concentrations. The data were fit to the model by minimizing the residual sum of squares. Based on the fitted response surface, plots of constant viability, called isobolograms, were produced.
(§9) The Combination Index and Nonlinear Blending were used as measures of drug synergy. To calculate Combination Index the 50% isobologram (which is the dose contour that has 50% viability) was used. […] A standard procedure was created to produce a call in order to characterize the viability effects for each combination (synergy, additivity, subadditivity, or antagonism). If the Combination Index existed then these measures were used to make the call.

[2] = system: COLO205 cancer cells; experiment: as above; type: cell-based, human;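 also: Ten-by-ten dose matrices of both agents in duplicate plus single-agent dilutions, luminescent ATP read-out, percent activity per well relative to DMSO vehicle wells, synergy call from these matrices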
[3] = system: H460 cancer cells; experiment: as above; type: cell-based;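 also: Ten-by-ten dose matrices of both drugs alongside single-agent dilutions, luminescence read 72 hours after compound addition, percent activity per well versus vehicle (DMSO) plate controls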
[4] = system: HCT116 cancer cells; experiment: as above; type: cell-based;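 also: combination call from 10×10 dose matrices in duplicate, graded by synergy, with percent activity per well relative to DMSO vehicle controls on the same plate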
Protocol: as §2, §3, §4, §5, §6, §7, §8, §9

[5] = system: SW48 cancer cells; experiment: as above; type: cell-based
Protocol: as §2
Compound dilution and compound delivery to the assay plates were done on HighRes Robotic System (HighRes Biosolutions, Woburn, Mass., USA) with Echo™ Liquid Handler (Labcyte, Sunnyvale, Calif., USA). First, 384-well low dead volume (LDV) plates containing DMSO (Appendix B) and 10 mM compound stock solutions were used to create the required intermediate compound dilution plates. Next, these were used for compound transfer into cell assay plates. All wells were back-filled to give a constant percentage of DMSO.
as §4, §5, §6, §7, §8, §9

[6] = system: SW620 cancer cells; experiment: as above; type: cell-based;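 also: Ten-by-ten dose matrices of both drugs in 384-well plates, luminescent ATP read-out, synergy evaluated against single-agent and DMSO vehicle controls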
[7] = system: CALU6 (Lung); experiment: In vitro combination study for selected compounds, additional cell lines; type: cell-based; conditions: drug combined with Compound 1
Protocol: (§1) In vitro anti-proliferative effects of selected compounds were tested in additional cell lines, including ovarian cancer (SKOV3) and pancreatic cancer (MIA-PACA-2) cell lines.

[8] = system: H-1650 (Lung); experiment: as above; type: cell-based; conditions: drug combined with Compound 1
Protocol: as §1

[9] = Table 5 drug combined with Compound 1, 72 h
[10] = DNA damaging agent combined with Compound 1, 72 h

| Compound | Call, anti-proliferative effect of combination with Compound 1, A549 [1, 9] | Call, anti-proliferative effect of combination with Compound 1, COLO205 [2, 9] | Call, anti-proliferative effect of combination with Compound 1, H460 [3, 9] | Call, anti-proliferative effect of combination with Compound 1, HCT116 [4, 9] | Call, anti-proliferative effect of combination with Compound 1, SW620 [6, 9] | Call, anti-proliferative effect of combination with Compound 1, H460 [3, 10] | Call, anti-proliferative effect of combination with Compound 1, HCT116 [4, 10] | Call, anti-proliferative effect of combination with Compound 1, SW48 [5, 10] | Call, anti-proliferative effect of combination with Compound 1, SW620 [6, 10] | further results |
| --- | --- | --- | --- | --- | --- | --- | --- | --- | --- | --- |
| Nc1ncn([C@@H]2O[C@H](CO)[C@@H](O)[C@H]2O)c(=O)n1 [Azacitidine] | Additivity (0.7 to 1.3) | Additivity (0.7 to 1.3) | Additivity (0.7 to 1.3) | Additivity (0.7 to 1.3) | Additivity (0.7 to 1.3) | – | – | – | – | Call, anti-proliferative effect of combination with Compound 1, SW48 [5, 9]: Additivity (0.7 to 1.3) |
| Cn1c(=O)n(-c2ccc(C(C)(C)C#N)cc2)c2c3cc(-c4cnc5ccccc5c4)ccc3ncc21 [BEZ-235] | Additivity (0.7 to 1.3) | Additivity (0.7 to 1.3) | Additivity (0.7 to 1.3) | Additivity (0.7 to 1.3) | Subadditivity (1.3 to 2) | – | – | – | – | Call, anti-proliferative effect of combination with Compound 1, SW48 [5, 9]: Antagonism (>2) |
| O=C(O)CCCc1ccc(N(CCCl)CCCl)cc1 [Chlorambucil] | – | – | – | – | – | Additivity (0.7 to 1.3) | Additivity (0.7 to 1.3) | Additivity (0.7 to 1.3) | – | Call, anti-proliferative effect of combination with Compound 1, A549 [1]: Additivity (key: Inconclusive: Any; Additivity: 0.7 to 1.3; Synergy: 0 to 0.7; Subadditivity: 1.3 to 2; Antagonism: >2) |
| COc1cccc2c1C(=O)c1c(O)c3c(c(O)c1C2=O)C[C@@](O)(C(C)=O)C[C@@H]3O[C@H]1C[C@H](N)[C@H](O)[C@H](C)O1 [Daunorubicin] | – | – | – | – | – | – | – | – | – | Call, anti-proliferative effect of combination with Compound 1, A549 [1]: Additivity (key: Inconclusive: Any; Additivity: 0.7 to 1.3; Synergy: 0 to 0.7; Subadditivity: 1.3 to 2; Antagonism: >2); Call, anti-proliferative effect of combination with Compound 1, COLO205 [2]: Additivity (key: Inconclusive: Any; Additivity: 0.7 to 1.3; Synergy: 0 to 0.7; Subadditivity: 1.3 to 2; Antagonism: >2); Call, anti-proliferative effect of combination with Compound 1, H460 [3]: Additivity (key: Inconclusive: Any; Additivity: 0.7 to 1.3; Synergy: 0 to 0.7; Subadditivity: 1.3 to 2; Antagonism: >2); Call, anti-proliferative effect of combination with Compound 1, HCT116 [4]: Synergy (key: Inconclusive: Any; Additivity: 0.7 to 1.3; Synergy: 0 to 0.7; Subadditivity: 1.3 to 2; Antagonism: >2); Call, anti-proliferative effect of combination with Compound 1, SW48 [5]: Additivity (key: Inconclusive: Any; Additivity: 0.7 to 1.3; Synergy: 0 to 0.7; Subadditivity: 1.3 to 2; Antagonism: >2); Call, anti-proliferative effect of combination with Compound 1, SW620 [6]: Synergy (key: Inconclusive: Any; Additivity: 0.7 to 1.3; Synergy: 0 to 0.7; Subadditivity: 1.3 to 2; Antagonism: >2) |
| Nc1ncn([C@H]2C[C@H](O)[C@@H](CO)O2)c(=O)n1 [Decitabine] | – | – | – | – | – | Synergy (0 to 0.7) | Synergy (0 to 0.7) | Additivity (0.7 to 1.3) | Additivity (0.7 to 1.3) | – |
| Nc1ccccc1NC(=O)c1ccc(CNC(=O)OCc2cccnc2)cc1 [Entinostat] | Synergy (0 to 0.7) | Subadditivity (1.3 to 2) | Synergy (0 to 0.7) | Additivity (0.7 to 1.3) | Synergy (0 to 0.7) | – | – | – | – | Call, anti-proliferative effect of combination with Compound 1, SW48 [5, 9]: Subadditivity (1.3 to 2) |
| COc1cc([C@@H]2c3cc4c(cc3[C@@H](O[C@@H]3O[C@@H]5CO[C@@H](C)O[C@H]5[C@H](O)[C@H]3O)[C@H]3COC(=O)[C@H]23)OCO4)cc(OC)c1O [Etoposide] | Synergy (0 to 0.7) | Synergy (0 to 0.7) | Synergy (0 to 0.7) | Synergy (0 to 0.7) | Synergy (0 to 0.7) | – | – | – | – | Call, anti-proliferative effect of combination with Compound 1, SW48 [5, 9]: Synergy (0 to 0.7) |
| N[C@@H](Cc1ccc(N(CCCl)CCCl)cc1)C(=O)O [Melphalan] | – | – | – | – | – | – | Synergy (0 to 0.7) | Additivity (0.7 to 1.3) | Synergy (0 to 0.7) | Call, anti-proliferative effect of combination with Compound 1, A549 [1]: Synergy (key: Inconclusive: Any; Additivity: 0.7 to 1.3; Synergy: 0 to 0.7; Subadditivity: 1.3 to 2; Antagonism: >2) |
| CO[C@@]12[C@H](COC(N)=O)C3=C(C(=O)C(C)=C(N)C3=O)N1C[C@@H]1N[C@@H]12 [Mitomycin C] | – | – | – | – | – | Synergy (0 to 0.7) | Synergy (0 to 0.7) | Synergy (0 to 0.7) | Synergy (0 to 0.7) | Call, anti-proliferative effect of combination with Compound 1, A549 [1, 10]: Synergy (0 to 0.7); Call, anti-proliferative effect of combination with Compound 1, COLO205 [2, 10]: Subadditivity (1.3 to 2) |
| O=C1c2c(O)ccc(O)c2C(=O)c2c(NCCNCCO)ccc(NCCNCCO)c21 [Mitoxantrone hydrochloride] | – | – | – | – | – | Synergy (0 to 0.7) | Synergy (0 to 0.7) | Additivity (0.7 to 1.3) | Synergy (0 to 0.7) | Call, anti-proliferative effect of combination with Compound 1, A549 [1, 10]: Synergy (0 to 0.7); Call, anti-proliferative effect of combination with Compound 1, COLO205 [2, 10]: Synergy (0 to 0.7) |
| COC1=CC(c2cc3ccccc3[nH]2)=N/C1=C\c1[nH]c(C)cc1C [Obatoclax] | Additivity (0.7 to 1.3) | Additivity (0.7 to 1.3) | Synergy (0 to 0.7) | Additivity (0.7 to 1.3) | Synergy (0 to 0.7) | – | – | – | – | Call, anti-proliferative effect of combination with Compound 1, SW48 [5, 9]: Additivity (0.7 to 1.3) |
| CC(=O)O[C@H]1C(=O)[C@@]2(C)[C@H]([C@H](OC(=O)c3ccccc3)[C@]3(O)C[C@H](OC(=O)[C@H](O)[C@@H](NC(=O)c4ccccc4)c4ccccc4)C(C)=C1C3(C)C)[C@]1(OC(C)=O)CO[C@@H]1C[C@@H]2O [Paclitaxel] | – | – | – | – | – | – | – | – | – | In vitro combination effect with Compound 1, Lung CALU6 [7]: Additive; In vitro combination effect with Compound 1, Lung H-1650 [8]: Antagonism |
| COc1cc([C@@H]2c3cc4c(cc3[C@@H](O[C@@H]3O[C@@H]5CO[C@@H](c6cccs6)O[C@H]5[C@H](O)[C@H]3O)[C@H]3COC(=O)[C@H]23)OCO4)cc(OC)c1O [Teniposide] | – | – | – | – | – | Synergy (0 to 0.7) | Synergy (0 to 0.7) | Synergy (0 to 0.7) | Synergy (0 to 0.7) | Call, anti-proliferative effect of combination with Compound 1, A549 [1, 10]: Synergy (0 to 0.7); Call, anti-proliferative effect of combination with Compound 1, COLO205 [2, 10]: Synergy (0 to 0.7) |
| C/C=C(/C)C(=O)O[C@H]1C(C)=C2[C@H]([C@@H]1OC(=O)CCCCCCC)[C@@](C)(OC(C)=O)C[C@H](OC(=O)CCC)[C@@]1(O)[C@H]2OC(=O)[C@@]1(C)O [Thapsigargin] | Additivity (0.7 to 1.3) | Additivity (0.7 to 1.3) | Additivity (0.7 to 1.3) | Additivity (0.7 to 1.3) | Additivity (0.7 to 1.3) | – | – | – | – | – |
| S=P(N1CC1)(N1CC1)N1CC1 [Thio-tepa] | – | – | – | – | – | Additivity (0.7 to 1.3) | Synergy (0 to 0.7) | Additivity (0.7 to 1.3) | Synergy (0 to 0.7) | Call, anti-proliferative effect of combination with Compound 1, A549 [1]: Additivity (key: Inconclusive: Any; Additivity: 0.7 to 1.3; Synergy: 0 to 0.7; Subadditivity: 1.3 to 2; Antagonism: >2) |
| CC[C@]1(O)C[C@H]2CN(CCc3c([nH]c4ccccc34)[C@@](C(=O)OC)(c3cc4c(cc3OC)N(C=O)[C@H]3[C@@](O)(C(=O)OC)[C@H](OC(C)=O)[C@]5(CC)C=CCN6CC[C@]43[C@@H]65)C2)C1 [Vincristine sulfate] | Subadditivity (1.3 to 2) | Additivity (0.7 to 1.3) | Additivity (0.7 to 1.3) | Additivity (0.7 to 1.3) | Subadditivity (1.3 to 2) | – | – | – | – | – |
| bleomycin | – | – | – | – | – | – | – | – | – | Call, anti-proliferative effect of combination with Compound 1, A549 [1]: Additivity (key: Inconclusive: Any; Additivity: 0.7 to 1.3; Synergy: 0 to 0.7; Subadditivity: 1.3 to 2; Antagonism: >2); Call, anti-proliferative effect of combination with Compound 1, COLO205 [2]: Synergy (key: Inconclusive: Any; Additivity: 0.7 to 1.3; Synergy: 0 to 0.7; Subadditivity: 1.3 to 2; Antagonism: >2); Call, anti-proliferative effect of combination with Compound 1, H460 [3]: Synergy (key: Inconclusive: Any; Additivity: 0.7 to 1.3; Synergy: 0 to 0.7; Subadditivity: 1.3 to 2; Antagonism: >2); Call, anti-proliferative effect of combination with Compound 1, HCT116 [4]: Synergy (key: Inconclusive: Any; Additivity: 0.7 to 1.3; Synergy: 0 to 0.7; Subadditivity: 1.3 to 2; Antagonism: >2); Call, anti-proliferative effect of combination with Compound 1, SW48 [5]: Additivity (key: Inconclusive: Any; Additivity: 0.7 to 1.3; Synergy: 0 to 0.7; Subadditivity: 1.3 to 2; Antagonism: >2); Call, anti-proliferative effect of combination with Compound 1, SW620 [6]: Additivity (key: Inconclusive: Any; Additivity: 0.7 to 1.3; Synergy: 0 to 0.7; Subadditivity: 1.3 to 2; Antagonism: >2) |
